Publication PMC12930396, “Positive modulators of N-methyl-D-aspartate receptor: structure–activity relationship study on steroidal C-17 and C-20 oxime ethers” (RSC Advances, 2026)

Assays:
GluN1/GluN2B receptors = molecular target: T1, GluN1/GluN2B receptors (Rattus norvegicus, UniProt P35439+Q00960); assay: Patch-clamp: modulation of glutamate-induced currents of recombinant GluN1/GluN2B receptors expressed in HEK293 cells; assay type: cell-based
T1 construct: expressed in transfected cells; host or cells: HEK293 cells (ATCC No. CRL-1573)
T1 sequence (Q00960 27-1482, other chains not shown): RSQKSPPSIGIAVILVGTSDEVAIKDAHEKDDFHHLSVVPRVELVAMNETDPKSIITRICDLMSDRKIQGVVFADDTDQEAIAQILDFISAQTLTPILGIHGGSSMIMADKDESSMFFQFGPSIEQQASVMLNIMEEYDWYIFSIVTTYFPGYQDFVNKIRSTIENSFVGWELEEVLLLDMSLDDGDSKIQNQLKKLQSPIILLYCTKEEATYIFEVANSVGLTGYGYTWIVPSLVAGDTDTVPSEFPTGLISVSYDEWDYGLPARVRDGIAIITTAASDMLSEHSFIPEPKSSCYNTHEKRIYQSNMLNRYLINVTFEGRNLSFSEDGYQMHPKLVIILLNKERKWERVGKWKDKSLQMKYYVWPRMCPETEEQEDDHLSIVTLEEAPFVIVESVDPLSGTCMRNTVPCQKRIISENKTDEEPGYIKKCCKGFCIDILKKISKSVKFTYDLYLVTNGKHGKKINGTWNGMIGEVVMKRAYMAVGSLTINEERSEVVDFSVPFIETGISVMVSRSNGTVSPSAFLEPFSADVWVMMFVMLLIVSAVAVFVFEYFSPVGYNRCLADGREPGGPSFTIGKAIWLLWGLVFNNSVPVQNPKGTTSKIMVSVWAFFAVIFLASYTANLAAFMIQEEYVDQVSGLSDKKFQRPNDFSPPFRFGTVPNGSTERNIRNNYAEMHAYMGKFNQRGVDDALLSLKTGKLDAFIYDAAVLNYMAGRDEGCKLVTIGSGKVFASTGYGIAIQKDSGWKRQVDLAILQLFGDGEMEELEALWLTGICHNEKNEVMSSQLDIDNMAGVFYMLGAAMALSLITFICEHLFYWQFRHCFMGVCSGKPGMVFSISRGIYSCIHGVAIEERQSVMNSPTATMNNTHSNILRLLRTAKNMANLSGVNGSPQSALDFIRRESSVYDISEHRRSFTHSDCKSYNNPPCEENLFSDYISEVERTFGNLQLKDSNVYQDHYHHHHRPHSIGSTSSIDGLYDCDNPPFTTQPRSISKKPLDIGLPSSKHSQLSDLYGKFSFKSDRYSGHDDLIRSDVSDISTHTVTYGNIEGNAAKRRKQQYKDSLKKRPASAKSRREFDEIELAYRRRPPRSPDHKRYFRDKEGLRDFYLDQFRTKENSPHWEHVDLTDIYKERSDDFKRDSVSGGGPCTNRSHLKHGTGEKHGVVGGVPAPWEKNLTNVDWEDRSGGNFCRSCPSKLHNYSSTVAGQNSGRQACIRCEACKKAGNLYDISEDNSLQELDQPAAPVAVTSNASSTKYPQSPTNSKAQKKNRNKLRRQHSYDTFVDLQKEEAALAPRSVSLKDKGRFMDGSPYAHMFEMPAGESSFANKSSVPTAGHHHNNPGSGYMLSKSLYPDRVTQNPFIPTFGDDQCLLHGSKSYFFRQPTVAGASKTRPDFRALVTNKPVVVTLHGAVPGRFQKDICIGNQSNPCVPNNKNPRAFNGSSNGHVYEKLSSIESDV
Protocol: To investigate the effect of compounds 11–23 on the activity of NMDARs, electrophysiological measurements were performed on HEK293 cells that were co-transfected with cDNAs containing genes encoding for the rat GluN1-1a and GluN2B subunits. The degree of modulation (E; potentiation/inhibition) for the newly synthesized compounds was determined using the following formula: [drawing 1] where Ie is the value of the current amplitude during glutamate and compound coapplication, and Ia is the current amplitude value for glutamate application. […] The results are presented as mean ± standard error of the mean (SEM), with n equal to the number of independent measurements. One-way analysis of variance (ANOVA) was used for multiple comparisons (unless otherwise stated, a value of P ≤ 0.05 was used for the determination of significance).
We have evaluated the relationship between oxime derivatives 11–23 and their modulatory effect on recombinant GluN1/GluN2B receptors. Due to the […] effect of neurosteroid-based PAMs at NMDARs[20,44]
HEK293 cells (American Type Culture Collection, ATCC No. CRL-1573, Rockville, MD, USA) were cultured in Opti-MEM I (Invitrogen, Carlsbad, CA, USA) supplemented with 5% fetal bovine serum (FBS; PAN Biotech, Aidenbach, Germany) at 37 °C in 5% CO2. 24 h before transfection, HEK293 cells were plated in 24-well plates at a density of 2 × 10^5 cells per well. The next day, the cells were transfected with cDNA encoding rat GluN1-1a (GluN1; GenBank accession number U08261)[56] and GluN2B (GenBank accession number M91562)[57] subunits (in the pCI-neo expression vector), along with green fluorescent protein (GFP; in the pQBI 25 vector, Takara, Tokyo, Japan). Briefly, equal amounts (200 ng) of cDNAs encoding GluN1-1a, GluN2B, and GFP were mixed with 0.6 µl of Matra-A reagent (IBA, Gottingen, Germany) in 50 µL of Opti-MEM I and added to confluent HEK293 cells cultured in 24-well plates. After trypsinization, the cells were resuspended in Opti-MEM I containing 1% FBS, supplemented with 20 mM MgCl2, 1 mM D,L-2-amino-5-phosphonovaleric acid, 3 mM kynurenic acid, and 1 µM ketamine, and plated on 30 mm glass coverslips coated with collagen and poly-L-lysine. Transfected cells were identified by GFP epifluorescence. Electrophysiology experiments were performed 24–48 h after transfection.
Whole-cell current recordings, voltage-clamped at a holding potential of −60 mV, were performed at room temperature using a patch-clamp amplifier (Axopatch 200B; Molecular Devices, Sunnyvale, CA, USA) after capacitance and series resistance (<10 MΩ) compensation (80–90%). NMDAR current responses were low-pass filtered at 2 kHz, digitally sampled at 5 kHz, and analysed using pClamp software (version 10.6; Molecular Devices). Patch pipettes (3–5 MΩ), pulled from borosilicate glass, were filled with an intracellular solution (ICS) containing (in mM): 15 CsCl, 10 BAPTA, 3 MgCl2, 1 CaCl2, 120 gluconic acid, 10 HEPES, and 2 ATP-Mg salt (pH adjusted to 7.2 with CsOH). The extracellular solution (ECS) contained (in mM): 160 NaCl, 2.5 KCl, 0.2 EDTA, 10 glucose, 10 HEPES, and 0.7 CaCl2 (pH adjusted to 7.3 with NaOH). NMDAR responses were induced by 1 µM glutamate and 30 µM glycine. 1% DMSO was present in all control and testing solutions. Solution applications were performed using a microprocessor-controlled multibarrel fast-perfusion system with a solution exchange rate around the cells of ∼10 ms.[58]

in vitro = conditions: pH 7.4
Protocol: Permeability was quantified using permeability coefficients (Pe) and mass retention, the latter representing the proportion of compound retained in the membrane.
Permeation experiments were conducted in polystyrene 96-well filter plates with PVDF membrane pre-coated with structured layers of phospholipids (Corning Gentest™) according to the manufacturer's instructions. Briefly, the plate was warmed to room temperature, and meanwhile, the solutions of the compounds were diluted from 10 mM DMSO stocks to TRIS–HCl buffer pH 7.4 to reach a 100 µM final concentration. The DMSO concentration in the samples was 1%. Then, 300 µL of these solutions were transferred into the donor (receiver) plate wells, and 200 µL of the (TRIS) buffer was added to the acceptor (filter) plate wells. The filter plate and receiver plate were assembled and incubated for 5 h on an orbital shaker (300 rpm). After this, the concentration of the tested substances in both the donor and acceptor compartments was determined with use of LC/MS. Liquid chromatography was performed using an ExionLC AD pump and autosampler from Sciex (Framingham, MA, USA). […] The mobile phase flow rate was 300 µL min^−1. The column Synergi Fusion-RP from Phenomenex (Torrance, CA, USA) was used and was kept at 40 °C during the analysis.

[1] = Stability in primary rat hepatocytes
Protocol: Primary rat hepatocytes were isolated from 12-weeks-old male Wistar rats (n = 3) by two-step collagenase liver perfusion. Tribromoethanol was used as an anesthetic agent at a dose of 250 mg kg^−1. […] Flow rate was maintained at 7 mL min^−1, and all solutions were kept at 37 °C. After in situ perfusion, the liver was excised, the liver capsule was opened, and cells were suspended in William's Medium E and filtered through a 70 µm membrane. Dead cells were removed by Percoll centrifugation (Percoll density: 1.06 g mL^−1, 50×g, 10 min, 20 °C) and additional centrifugation in William's Medium E (50×g, 5 min). Cells were subsequently diluted in William's Medium E, and their viability and cell suspension density were determined by Trypan Blue exclusion using a hemocytometer. […] Aliquots (50 µL) of the hepatocyte suspension were added to each test well of a 96-well plate, immediately followed by the addition of a 50 µL aliquot of the test compound or control solutions (final hepatocyte density – 0.5 × 10^6 mL^−1). […] At appropriate time-points, 40 µL aliquots were removed from the wells and placed in 1.1 mL microtubes containing 200 µL of methanol and used for LC-MS/MS analysis.
Elimination constant (kel), half-life (t1/2), and intrinsic clearance (CLint) were determined in plots of ln (percent remaining of parent compound) versus time, using linear regression analysis: k = −slope [drawing 6] [drawing 7]

Question: What does the source list for `CCON=C(C)C1CCC2C3CC=C4CC(OC(=O)CCCC(=O)O)CCC4(C)C3CCC12C` (stereo not drawn) [Compound 12, 20-Oxo-pregn-5-en-3β-yl hemiglutarate O-ethyloxime]?
Answer: Efficacy relative to PES (GluN1/GluN2B receptors; Emax compared with PES): over 6 fold; h ± SEM (apparent Hill coefficient) (GluN1/GluN2B receptors; concentration-response fit, mean ± SEM): 1.7 ± 0.3; EC50 (GluN1/GluN2B receptors; half-maximal potentiation of currents evoked by 1 µM glutamate, HEK293, mean ± SEM): 8.7 ± 1.1 µM; Emax (GluN1/GluN2B receptors; maximal potentiation of currents evoked by 1 µM glutamate and 30 µM glycine, HEK293, mean ± SEM): 673 ± 121%; PAMPA permeability Retention (mass retention) (in vitro; 5 h, 100 µM): 97%; Papp at 5 h, 100 µM (in vitro; PAMPA): 38.9 nm/s; Stability in primary rat hepatocytes Clint ([1]; 3 µM, 0.5 × 10^6 cells mL^−1): 19.1 µL/min/mg; half-life at 3 µM ([1]; male, Wistar, rat, hepatocytes): 1.21 h; Metabolic stability in rat hepatocytes ([1]; rat, hepatocytes): moderate metabolic stability
